One data set has as its target T1, CYP2B6 (Homo sapiens, UniProt P20813).
T1 construct: tissue Corning Life Sciences; host or cells: pooled human liver microsomes, 150 donors
T1 sequence (P20813 1-491): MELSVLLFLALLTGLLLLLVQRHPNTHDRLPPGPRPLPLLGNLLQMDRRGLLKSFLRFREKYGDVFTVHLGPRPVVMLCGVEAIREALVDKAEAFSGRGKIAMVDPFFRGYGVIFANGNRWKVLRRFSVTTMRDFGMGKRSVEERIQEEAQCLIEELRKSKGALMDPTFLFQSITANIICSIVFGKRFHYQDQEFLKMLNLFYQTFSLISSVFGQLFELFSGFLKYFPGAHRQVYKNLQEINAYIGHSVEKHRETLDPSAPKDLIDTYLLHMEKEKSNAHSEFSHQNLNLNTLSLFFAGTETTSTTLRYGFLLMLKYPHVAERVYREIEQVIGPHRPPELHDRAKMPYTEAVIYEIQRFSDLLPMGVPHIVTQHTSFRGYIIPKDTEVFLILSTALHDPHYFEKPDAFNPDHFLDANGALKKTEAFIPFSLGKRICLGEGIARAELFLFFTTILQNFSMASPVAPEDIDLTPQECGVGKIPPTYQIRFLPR
The experiment in a line: Reversible CYP2B6 inhibition, cocktail assay (bupropion hydroxylase) in human liver microsomes. The data set is classed as biochemical. How it is done: The inhibitory effects of SPN on CYP1A2, CYP2A6, CYP2B6, CYP2C8, CYP2C9, CYP2C19, CYP2D6, CYP2E1, and CYP3A4 were evaluated in pooled human liver microsomes through the use of specific CYP probe substrates (cocktail assay), as previously described with a slight modification. Concentrations of each CYP probe in Table 1 were used close to their reported Km values.
Briefly, a 90-µL incubation mixture, including pooled human liver microsomes (final concentration 0.1 mg/mL), 50 mM phosphate buffer (pH 7.4), each CYP-probe substrate cocktail set, and SPN (0–50 μM), was pre-incubated for 5 min at 37 °C. SPN was dissolved in methanol and spiked into the incubation mixture to a final concentration of 0.5% methanol. […]
The IC50 values were calculated via nonlinear least-squares regression analysis from logarithmic plots of inhibitor concentration versus percentage of activity remaining after inhibition, using SigmaPlot (ver. 14.0; Systat Software Inc, Chicago, IL, USA). The Ki values were determined from the equations for a single substrate single inhibitor model and the software available in the SigmaPlot Enzyme Kinetics module. Competitive, non-competitive, uncompetitive, or mixed inhibition models were evaluated and ranked according to the best fit based on Akaike Information Criterion (AIC) values. […]

In another data set the target is T2, CYP2C9 (Homo sapiens, UniProt P11712).
T2 construct: tissue Corning Life Sciences; host or cells: pooled human liver microsomes, 150 donors
The experiment in a line: Determination of Ki and inhibition type on CYP2C9 activity in human liver microsomes. The data set is classed as biochemical. The following applies: for Ki: human liver microsomes, n = 3. How it is done:
Based on the IC50 values, the Ki values of SPN on CYP2C9 activity were determined. […] Other procedures were similar to those of the reversible inhibition studies. All incubations were performed in triplicate, and the data are shown as the mean ± standard deviation.
The IC50 values were calculated via nonlinear least-squares regression analysis from logarithmic plots of inhibitor concentration versus percentage of activity remaining after inhibition, using SigmaPlot (ver. 14.0; Systat Software Inc, Chicago, IL, USA). The Ki values were determined from the equations for a single substrate single inhibitor model and the software available in the SigmaPlot Enzyme Kinetics module. Competitive, non-competitive, uncompetitive, or mixed inhibition models were evaluated and ranked according to the best fit based on Akaike Information Criterion (AIC) values. For visual inspection, the data were presented as Dixon plots.
A general note: Liver microsomes are vesicles of endoplasmic reticulum, rich in cytochrome P450 enzymes.

Where two headings read alike, the source gives them in different places.

T2 sequence (P11712 whole entry): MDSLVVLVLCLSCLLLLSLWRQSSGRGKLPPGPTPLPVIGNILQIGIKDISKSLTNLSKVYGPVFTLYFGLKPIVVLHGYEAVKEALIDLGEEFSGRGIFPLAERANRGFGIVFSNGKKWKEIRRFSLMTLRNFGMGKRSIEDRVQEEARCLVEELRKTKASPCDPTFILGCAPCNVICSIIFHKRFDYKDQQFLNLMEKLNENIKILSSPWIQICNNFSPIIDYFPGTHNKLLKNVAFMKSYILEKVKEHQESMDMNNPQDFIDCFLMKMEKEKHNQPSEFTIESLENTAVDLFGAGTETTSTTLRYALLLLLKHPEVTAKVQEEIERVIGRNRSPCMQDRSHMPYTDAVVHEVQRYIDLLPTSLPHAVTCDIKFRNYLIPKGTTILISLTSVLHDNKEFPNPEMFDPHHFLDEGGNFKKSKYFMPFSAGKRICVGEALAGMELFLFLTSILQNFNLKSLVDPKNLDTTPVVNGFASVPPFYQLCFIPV

Take `CC(C)=CCc1cc([C@@H]2CC(=O)c3ccc(O)c(CC=C(C)C)c3O2)cc(CC=C(C)C)c1O` [SPN, (‒)-Sophoranone]: the “residual enzyme activity, CYP2B6” value at CYP2B6 (at the highest tested concentration (50 μM)) was “greater than 80%”. For the same compound, the IC50 (as a rule, the midpoint of a concentration-inhibition curve) against CYP2B6 (human liver microsomes 0.1 mg/mL, cocktail assay, bupropion probe, n = 3) was > 50000 nM. Besides, the Ki (in general, a measure of affinity in units of concentration, obtained from inhibition or displacement) on CYP2C9 (Ki values, CYP2C9 probe diclofenac, diclofenac 2, 5, and 10 µM) was 587 ± 47 nM; on CYP2C9 (tolbutamide 50, 100, and 150 µM, read-out: Ki values, CYP2C9 probe tolbutamide) it was 503 ± 38.3 nM. Moreover, on CYP2C9 (best fit based on AIC values), the “Mode of inhibition, CYP2C9 probe diclofenac” value was “Competitive”. On CYP2C9 (best fit based on AIC values), the “Mode of inhibition, CYP2C9 probe tolbutamide” value is on record as “Competitive”.

The record behind these values is article PMC7238241, “Lack of Correlation between In Vitro and In Vivo Studies on the Inhibitory Effects of (‒)-Sophoranone on CYP2C9 Is Attributable to Low Oral Absorption and Extensive Plasma Protein Binding of (‒)-Sophoranone” (Pharmaceutics, 2020).
